Assay results taken from US9499493B2, “2,4-pyrimidinediamine compounds and their uses” (Rigel Pharmaceuticals, Inc., priority 2002, dated 2016).

Legend:
[1] = tested on: CHMC cells; experiment: Phosphorylation of proteins downstream of Syk / LYN kinase in the FcεRI cascade, activated CHMC cells; assay type: cell-based, human; conditions: FIG. 10
[2] = tested on: cultured human mast cells (CHMC); experiment: CHMC low cell density IgE activation: tryptase assay; assay type: cell-based; conditions: anti-IgE
Procedure, shortened: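 CHMC resuspended in pre-warmed MT buffer at 1000-1500 cells/well (donor-dependent) and preincubated 1 hr at 37° C, then stimulated with anti-IgE for 30 min at 37° C; unstimulated wells got MT alone. Supernatant tryptase activity read with tryptase substrate after 30 min at room temperature.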

[3] = tested on: cultured human mast cells (CHMC); experiment: CHMC low cell density ionomycin activation: tryptase assay; assay type: cell-based
[4] = Mouse model of allergic asthma (ovalbumin); assay type: in vivo; conditions: for methacoline-induced bronchocontriction: mouse, in vivo
Source text: Mice are sensitized to ovalbumin (chicken protein) in the presence of an adjuvant (Alum) by the intraperitoneal route on day 0 and day 7. One week later, mice are challenged intranasally with ovalbumin on Days 14, 15 and 16 (more stringent model) or on Day 14 (less stringent model). This sensitization and challenge regimen leads to airway hyperresponsiveness and inflammation in the lungs, which are two dominant characteristics of human allergic asthma. In the mouse model, the in vivo airway responses are measured using a whole body plethysmograph which determines the PENH (enhanced Pause, Buxco Electronics). The PENH is a dimensionless value comprised of the peak inspiratory flow (PIF), peak expiratory flow (PEF), time of inspiration, time of expiration and relaxation time, and is considered a validated parameter of airway responsiveness. Responses to allergen challenge (OVA) are compared with animals challenged with saline only. Twenty-four hours after challenge, mice are exposed to increasing doses of methacholine (muscarinic receptor agonist) which results in smooth muscle contraction. […] In addition, a cellular infiltrate in the airway is observed in ovalbumin challenged mice when compared with the saline challenged mice. This cellular infiltrate is mainly characterized by eosinophils, but a smaller influx of neutrophils and mononuclear cells is also present.
The use of this model for the evaluation of small molecule inhibitors of mast cell degranulation has been validated is several ways. First, using mast cell deficient mice (W/W^v) it has been shown that the ovalbumin-induced responses are dependent upon the presence of mast cells.

[5] = tested on: bone marrow derived mast cells (BMMC); experiment: BMMC high cell density IgE activation: hexosaminidase; assay type: cell-based, mouse; conditions: anti-IgE, second part of TABLE 1, read-out: BMMC anti-IgE hexos. IC50
Procedure, shortened: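 IgE-sensitized BMMC at 1-3×10^6 cells/ml preincubated 1 hour at 37° C. with compound (0.5% DMSO), then stimulated 1 hour with DNP-BSA (6× stimulus 60 ng/ml). Supernatant hexosaminidase measured with 2 mM 4-methylumbelliferyl-N-acetyl-glucosaminide substrate at 37° C., read at 5–30 minutes.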

[6] = tested on: basophil cells; experiment: Basophil IgE activation: histamine release assay; assay type: cell-based, human; conditions: Basophils, anti-IgE
Procedure: (§1) The basophil activation assay was carried out using whole human peripheral blood from donors allergic to dust mites with the majority of the red blood cells removed by dextran sedimentation. Human peripheral blood was mixed 1:1 with 3% dextran T500 and RBCs were allowed to settle for 20-25 min. The upper fraction was diluted with 3 volumes of D-PBS and cells were spun down for 10 min at 1500 rpm, RT. Supernatant was aspirated and cells were washed in an equal volume MT-buffer. Finally, cells were resuspended in MT-buffer containing 0.5% DMSO in the original blood volume. 80 uL cells were mixed with 20 uL compound in the presence of 0.5% DMSO, in triplicate, in a V-bottom 96-well tissue culture plate. A dose range of 8 compound concentrations was tested resulting in a 10-point dose response curve including maximum (stimulated) and minimum (unstimulated) response. […] The cells were stimulated for 30 minutes at 37° C., 5% CO2. The plate was spun for 10 min at 1500 rpm at room temperature and 80 uL the supernatant was harvested for histamine content analysis using the histamine ELISA kit supplied by Immunotech. The ELISA was performed according to supplier's instructions.

[7] = tested on: basophil cells; experiment: Basophil ionomycin activation: histamine release assay; assay type: cell-based, human; conditions: Basophils
Procedure: as §1
Assays for ionomycin-induced basophil cell degranulation were carried out as described for the Basophil IgE or Dustmite Activation Assay (Section 6.4.6, supra), with the exception that following incubation with compound, cells were stimulated with 20 μl of 2 μM ionomycin.

[8] = tested on: bone marrow derived mast cells (BMMC); experiment: BMMC high cell density ionomycin activation: hexosaminidase; assay type: cell-based, mouse; conditions: second part of TABLE 1, read-out: BMMC Ionomycin hexos. IC50
[9] = Immediacy (time course) of inhibitory activity; assay type: cell-based; conditions: FIG. 5
[10] = tested on: cultured human mast cells (CHMC); experiment: CHMC high cell density IgE activation: hexos (hexosaminidase) release; assay type: cell-based; conditions: anti-IgE activation
Procedure: (§2) Inhibition of degranulation was measured at both low and high cell density by quantifying the release of the granule specific factors tryptase, histamine and hexosaminidase. Inhibition of release and/or synthesis of lipid mediators was assessed by measuring the release of leukotriene LTC4 and inhibition of release and/or synthesis of cytokines was monitored by quantifying TNF-α, IL-6 and IL-13. Tryptase and hexosaminidase were quantified using fluorogenic substrates as described in their respective examples. […] The protocols of the various assays are provided below.
(§3) After sensitizing, cells are counted, pelleted (1000 rpm, 5-10 minutes), and resuspended at 1-2×10^6 cells/ml in MT buffer. Add 100 ul of cell suspension to each well and 100 ul of compound dilutions. The final vehicle concentration is 0.5% DMSO. Incubate at 37° C. (5% CO2) for 1 hour. After 1 hour of compound treatment, stimulate cells with 6× anti-IgE. Mix wells with the cells and allow plates to incubate at 37° C. (5% CO2) for one hour. After 1 hour incubation, pellet cells (10 minutes, 1000 RPM) and collect 200 ul per well of the supernatant, being careful not to disturb pellet. Place the supernatant plate on ice. During the 7-hour step (see next) perform tryptase assay on supernatant that had been diluted 1:500. Resuspend cell pellet in 240 ul of CM media containing 0.5% DMSO and corresponding concentration of compound. Incubate CHMC cells for 7 hours at 37° C. (5% CO2). After incubation, pellet cells (1000 RPM, 10 minutes) and collect 225 ul per well and place in −80° C. until ready to perform ELISAS. ELISAS are performed on appropriately diluted samples (determined empirically for each donor cell population so that the sample measurement falls within the standard curve) following the supplier's instructions.

[11] = tested on: cultured human mast cells (CHMC); experiment: CHMC high cell density IgE activation: histamine; assay type: cell-based; conditions: anti-IgE activation
Procedure: as §2, §3

[12] = tested on: cultured human mast cells (CHMC); experiment: CHMC high cell density IgE activation: TNFalpha; assay type: cell-based; conditions: anti-IgE activation; read-out: CHMC high density TNF-alpha
Procedure: as §2, §3

[13] = tested on: bone marrow derived mast cells (BMMC); experiment: BMMC high cell density IgE activation: histamine; assay type: cell-based, mouse; conditions: anti-IgE, second part of TABLE 1
Procedure, shortened: (§4)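 IgE-sensitized BMMC (1-3×10^6 cells/ml, MT buffer) were pretreated with compound for 1 h at 37 °C in 0.5% DMSO, then stimulated with DNP-BSA (6× stimulus, 60 ng/ml) for 1 h. Supernatant was taken, and cells were re-incubated 4–5 h in WEI-conditioned medium with compound. Mediators were quantified by ELISA.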

[14] = tested on: bone marrow derived mast cells (BMMC); experiment: BMMC high cell density IgE activation: LTC4; assay type: cell-based, mouse; conditions: anti-IgE, second part of TABLE 1
Procedure, shortened: as §4

[15] = tested on: bone marrow derived mast cells (BMMC); experiment: BMMC high cell density IgE activation: TNFalpha; assay type: cell-based, mouse; conditions: anti-IgE, second part of TABLE 1, read-out: BMMC anti-IgE TNF-alpha IC50
Procedure, shortened: as §4

[16] = tested on: Jurkat cells; experiment: Jurkat toxicity, Cell Titer Glo assay; assay type: cell-based; conditions: 18 hours incubation
Procedure: Seed 50 μl cells (1×10^6/ml) into each well containing 50 μl compound. […] Shake plates for 1 minute to mix cells and compound. Incubate plates at 37° C. […] Next day, harvest 50 μl cells from each well, add to 50 μl Cell Titer Glo reagent ([…]). Shake plates for 1 minute. Read on luminometer.

[17] = tested on: B-cell line BJAB; experiment: BJAB toxicity, Cell Titer Glo assay; assay type: cell-based; conditions: 18 hours incubation
Procedure: Seed 50 μl cells (1×10^6/ml) into each well containing 50 μl compound. The final vehicle concentration is 0.5% DMSO, 1.5% MeOH. Shake plates for 1 minute to mix cells and compound. Incubate plates at 37° C. (5% CO2) for 18 hours. Next day, harvest 50 μl cells from each well, add to 50 μl Cell Titer Glo reagent ([…]). Shake plates for 1 minute. Read on luminometer.

[18] = Sheep model of allergic asthma (Ascaris suum challenge); assay type: in vivo; conditions: aqueous suspension
Procedure: Sheep develop bronchoconstriction within minutes of exposure to inhaled antigen (Ascaris suum), with maximal airflow obstruction during the early allergic response (EAR). Release of preformed mast cell mediators is likely responsible for this early phase of airflow obstruction. […] In the sheep, AHR develops a few hours following antigen challenge, and can persist for up to 2 weeks.
In the sheep model of allergic asthma, sheep are administered aerosols of test article via an endotracheal tube, followed by an aerosol challenge with antigen extracted from the roundworm, Ascaris suum, to which the sheep are naturally allergic. Allergen challenge leads to direct bronchoconstriction (both EAR and LAR) and a persistent non-specific AHR. These three characteristics are similar to those seen in human allergic asthmatics. The activity of the test agent is determined by changes in the lung resistance (RL), which is calculated from measurements of transpulmonary pressure, flow, and respiratory volume. […] The LAR is a less pronounced increase in RL, which starts approximately 5-6 hours following allergen challenge and is resolved by 8 hours post-challenge. Twenty-four hours after the challenge, a dose response to carbachol is measured to determine the AHR, which is expressed as the dose of carbachol required to increase RL by 400% over baseline. (This measurement is referred to as the provocative concentration of carbachol that elicits a 400% increase in RL over baseline (PC400). The data are compared to historical control data for the same individual when administered a saline control aerosol and challenged with Ascaris suum.

[19] = 45 mg/sheep, pretreatment 60 min

Compound: CC(C)(C)n1nc(-c2ccc(Cl)cc2)c2c(N)ncnc21 [PP2, reference compound]
- phosphorylation of proteins downstream of LYN kinase [1]: inhibition

Compound: CNC(=O)COc1cccc(Nc2ncc(F)c(Nc3ccc4c(n3)NC(=O)CO4)n2)c1 [R921304, 5-Fluoro-N2-(3-methylaminocarbonylmethyleneoxyphenyl)-N4-[2H-pyrido[3,2-b]-1,4-oxazin-3(4H)-one-6-yl]-2,4-pyrimidinediamine]
- IC50 [2]: 85 nM
- IC50 [3]: > 10000 nM
- ovalbumin-induced airway hyperresponsiveness to methacholine ([4]; intranasal, 20 mg/kg, 10 consecutive days (Day 7 through Day 16)): able to inhibit

Compound: Fc1cnc(Nc2ccc3c(c2)OC(F)(F)C(F)(F)O3)nc1Nc1ccc2c(c1)OC(F)(F)C(F)(F)O2 [R926037, N2,N4-Bis(3,4-tetrafluoroethylendioxyphenyl)-5-fluoro-2,4-pyrimidinediamine]
- IC50 [5]: > 10000 nM
- IC50 [6]: > 10000 nM
- IC50 [7]: > 10000 nM
- IC50 [8]: > 10000 nM

Compound: CNC(=O)COc1cccc(Nc2ncc(F)c(Nc3ccc4c(c3)OCCO4)n2)c1 [R926495, N4-(3,4-Ethylenedioxyphenyl)-5-fluoro-N2-[3-(N-methylamino)carbonylmethyleneoxyphenyl]-2,4-pyrimidinediamine]
- onset of inhibitory activity [9]: immediacy of the inhibitory activity
- IC50 [3]: > 10000 nM
- IC50 [10]: 100 nM
- IC50 [11]: 66 nM
- IC50 [12]: 362 nM
- IC50 [5]: 56 nM
- IC50 [13]: 89 nM
- IC50 [14]: 240 nM
- IC50 [15]: 77 nM
- IC50 [7]: > 10000 nM
- IC50 [16]: > 10000 nM
- IC50 [17]: > 10000 nM
- LAR and AHR (in words) ([18]; 45 mg/sheep, 60 minutes prior to allergen challenge): blocked
- AHR (% inhibition) [18, 19]: 41%
- EAR (% inhibition) [18, 19]: 33%
- LAR (% inhibition) [18, 19]: 85%
- EAR (in words) [18]: greatly reduced

Compound: CCCC1O[C@@H]2C[C@H]3[C@@H]4CCC5=CC(=O)C=C[C@]5(C)[C@H]4[C@@H](O)C[C@]3(C)[C@]2(C(=O)CO)O1 (stereo partly drawn) [budesonide]
- methacoline-induced bronchocontriction [4]: inhibitory effect

Compound: C[C@@H]1C[C@H]2[C@@H]3CCC4=CC(=O)C=C[C@]4(C)[C@@]3(F)[C@@H](O)C[C@]2(C)[C@@]1(O)C(=O)CO [dexamethasone]
- methacoline-induced bronchocontriction [4]: inhibitory effect
